Data on two compounds can be found in patent US11185514B2, “Aqueous solution comprising a polyphenol” (OPTERION Health AG, priority 2015, dated 2021).

Data set [1] is described as follows: Stability after one hour stirring at RT as a function of glucose or icodextrin concentration in salt solution at pH 3 or pH 7 (Example 1). It is filed as physicochemical. Conditions: pH of 3 to 3.5. The procedure: For analysis R and P and their impurities were separated by a C-18 column with a gradient system and UV-detection at 306 nm. Solubility and stability of Resveratrol and […] after one hour stirring at RT, as a function of glucose or icodextrin concentration in a solution, containing 5.4 g/L NaCl, 4.5 g/L NaLactate, 0.275 g/L CaCl2, and 0.051 g/L MgCl2, buffered at pH 3 or pH 7. Solubility was measured after one hour stirring at room temperature, in presence of excess solute, followed by filtering.

A short description of data set [2]: Solubility after one hour stirring at RT as a function of glucose or icodextrin concentration in salt solution at pH 3 or pH 7 (Example 1). It counts as physicochemical. The conditions noted are these: 0% glucose or icodextrin. The procedure: Concentrations of stilbenoid in the present invention are measured after 1 hour stirring at room temperature, which is preferably 20-23° C., more preferably 22°. So, stilbenoid concentrations correspond to measured solubility after 1 hour stirring at room temperature. Concentration is measured in aqueous solution, comprising the stilbenoid and the at least one saccharide. If not specifically indicated, or if not specifically indicated otherwise, the time of stirring is one hour. In some cases, other stirring times are indicated, such as 12 hours. […] With increasing concentrations of saccharides, less variations were observed. This is highly beneficial for pharmacological formulations. For analysis R and P and their impurities were separated by a C-18 column with a gradient system and UV-detection at 306 nm. Solubility and stability of Resveratrol and […] after one hour stirring at RT, as a function of glucose or icodextrin concentration in a solution, containing 5.4 g/L NaCl, 4.5 g/L NaLactate, 0.275 g/L CaCl2, and 0.051 g/L MgCl2, buffered at pH 3 or pH 7. Solubility was measured after one hour stirring at room temperature, in presence of excess solute, followed by filtering.

A short description of data set [3]: Solubility in commercial peritoneal dialysis solutions (Medium B, E, F), 5 minutes to 12 hours stirring (Example 2). It counts as physicochemical. The conditions noted are these: for P in Medium B found: Medium B (106.5 g/L anhydrous glucose, pH 3.5); for P in Medium B found / P in Medium E found / P in Medium F found: room temperature; for P in Medium E found: Medium E (75 g/L Icodextrin, pH 3); for P in Medium F found: Medium F (30 g/L anhydrous glucose, pH 3). The procedure: (§1) Solubility studies were carried out commercially available peritoneal dialysis solutions Fresenius Safestay® 1.5% glucose, Baxter Physioneal® 3.86% glucose and Baxter Extraneal® (7.5% icodextrin), precisely in acidic glucose solutions, such as applied in two compartiment peritoneal dialysis applications Stay Safe® and Physioneal®, as well as in Extraneal® Solution that had previously been acidified to pH3. Medium B (117.14 g/L glucose monohydrate (equivalent to 106.5 g/L anhydrous glucose), 0.507 g/L Calcium chloride dihydrate, 0.140 g/L Magnesium chloride hexahydrate, measured pH 3.5), Medium E (75 g/L Icodextrin, 5.35 g/L Sodium Chloride, 4.48 g/L Sodium Lactate, 257 mg/L Calcium Chloride USP, 50.8 mg/L Magnesium Chloride USP, adjusted to pH 3 in our lab), and Medium F (30 g/L anhydrous glucose, 11.279 g/L Sodium chloride, 0.3675 g/L Calcium chloride dihydrate, 0.2033 g/L Magnesium chloride hexahydrate, measured pH 3).
Solubility was measured after 5 minutes to 12 hours stirring at room temperature, in presence of excess solute, followed by filtering.
Solubility was measured after one hour or 12 hours stirring at room temperature, in presence of excess solute, followed by filtering.

Data set [4] in a line: Stability of Resveratrol in commercial dialysis solutions during autoclavation (Example 4). It counts as physicochemical. As to the method: For analysis R and P and their impurities were separated by a C-18 column with a gradient system and UV-detection at 306 nm.
as §1
Stability of Resveratrol in commercial dialysis solutions during autoclavation. Experiment was carried out in previous defined media B, E and F. 25 mg of resveratrol were sonicated in each medium and 0.45 μm filtered to give clear solutions. Obtained solutions were autoclaved for 30 min at 121° C.

Data set [5] in a line: Solubility of resveratrol in water / aqueous solution after stirring at room temperature (general statements). It is filed as physicochemical. The procedure:
Concentrations of stilbenoid in the present invention are measured after 1 hour stirring at room temperature, which is preferably 20-23° C., more preferably 22°. So, stilbenoid concentrations correspond to measured solubility after 1 hour stirring at room temperature. Concentration is measured in aqueous solution, comprising the stilbenoid and the at least one saccharide. If not specifically indicated, or if not specifically indicated otherwise, the time of stirring is one hour. In some cases, other stirring times are indicated, such as 12 hours. […] With increasing concentrations of saccharides, less variations were observed. This is highly beneficial for pharmacological formulations.
(§2) Solubility measurements after 1 hour stirring at RT generated some variability in-between measurement series, which might be due to low temperature variations, back-ground measurements and experimental imprecisions. […] The here calculated factors of increase of solubility are therefore to be considered as conservative.

For data set [6] the following is noted: cited from earlier work.
A short description of data set [7]: Solubility after one hour stirring at RT as a function of saccharide concentration in H2O (Examples 5-9). It counts as physicochemical. Conditions: 24% N-acetylglucosamin in H2O, 1 hour stirring RT. The procedure: as §2
Solubility of Resveratrol after one hour stirring at RT, as a function of the concentration of Maltose, Maltotriose, Isomaltotriose, and Maltotetraose in H2O. Solubility was measured after one hour stirring at room temperature, in presence of excess solute, followed by filtering. […] Concentration of Maltose and maltotriose of 7.5% increased solubility of the stilbenoid resveratrol by a factor higher than 6 and 3 respectively.
Solubility of Resveratrol after one hour stirring at RT, as a function of the concentration of Maltodextrin DE 16-19 (DE═dextrose equivalents), Maltodextrin DE 4-7 or Icodextrin in H2O. Solubility was measured after one hour stirring at room temperature, in presence of excess solute, followed by filtering.
Solubility of Resveratrol after one hour stirring at RT, as a function of the concentration of Dextran 2.5-4 kD, Dextran 10 kD, Glycogen 100 kD, and Pullulan 100-200 kD, in H2O. Solubility was measured after one hour stirring at room temperature, in presence of excess solute, followed by filtering. […]

Values after ≈ are worked out from the molar mass of the structure shown.

In general, solubility refers to the concentration that dissolves in the medium under given conditions. Low readings indicate a poorly soluble substance, high ones a readily soluble substance.

On to `OC[C@H]1O[C@@H](Oc2cc(O)cc(/C=C/c3ccc(O)cc3)c2)[C@H](O)[C@@H](O)[C@@H]1O` [Piceid, resveratrol-3-O-β-mono-D-glucoside], for which, in data set [1], the “stabilization by pH” value is listed as “significantly stabilize”. The “effect of pH3 versus pH7 on solubility” value in data set [2] was “slightly increases solubility”. For the same compound, in data set [3] (stirring time 60 min), the “P in Medium B found” value was determined as 485.6 mg/L, the “P in Medium E found” value was 1585.5 mg/L and the “P in Medium F found” value turned out to be 493.8 mg/L. In data set [3] (stirring time 12 h), the “P in Medium B found” value is given as 342.9 mg/L, the “P in Medium E found” value is listed as 1370.3 mg/L and the “P in Medium F found” value stood at 461.4 mg/L. Moreover, the “stability of solubilized piceid over stirring time” value in data set [3] (commercial dialysis solutions, between 1 and 12 hours stirring) is “stable between 1 and 12 hours”.

As for `Oc1ccc(/C=C/c2cc(O)cc(O)c2)cc1` [Resveratrol, trans-3,5,4′-trihydroxystilbene], the “stability on heat sterilization” value in data set [4] (pH 3 adjusted Extraneal solution, heat sterilization) is recorded as “without degradation”. Moreover, in data set [4] (saccharide containing dialysis solutions at pH3, specifically in presence of 7.5% Icodextrin), the “stability during standard heat-sterilization” value is recorded as “remarkably high”. The “stabilization by pH” value in data set [1] is given as “significantly stabilize”. Also, the solubility at 1 h in data set [5] (22 °C, thermodynamic from solid, after 1 hour stirring, distilled water, variation between measurements) was 1 to 6.5 µg/mL (≈ 4.38 to 28.5 µM). Further, the “concentration of resveratrol after 12 hours” value in data set [5] (12 hours stirring) was “above 24 mg/L”. For the same compound, the “referred absolute solubility of Resveratrol in aqueous solution” value in data set [6] was “approximately 30 mg/L”. Also, in data set [7], the increase of concentration is recorded as 12 times. Further, in data set [2], the “effect of pH3 versus pH7 on solubility” value was “slightly increases solubility”. The “solubility relative to referred absolute solubility (approximately 30 mg/L)” value in data set [3] (7.5% Icodextrin (Medium E), 12 hours stirring) is “about 4 times”.
